What was measured:
[1] = literature by Zhuang et al.; cited from earlier work
[2] = test system: NFTs in AD brain slices including the hippocampal formation; experiment: In vitro autoradiography of AD brains including hippocampal formation; assay type: binding, human; conditions: for total binding after addition of non-radioactive PBB5 (100 μM) and thioflavin-S (10 μM) / signals in hippocampus CAI region and pes hippocampi: 10 nM radioligand; for signals in hippocampus CAI region and pes hippocampi: AD patient's brain slice
Procedure: 12 to 15-month-old non-Tg WT mice and PS19 mice were decapitated, and their brains were frozen and sliced into 20 μm-thick sections in a cryostat (HM560). The sections were placed on slide glass (Matsunami Glass), and kept at −80° C., until an analysis. Similarly, sections of the cerebral cortex were obtained from an AD patient. […] Non-specific bonding was detected in the presence of a 10 μMV non-radioactive ligand. Samples were reacted with [^11C]PBB2 or [^11C]PBB3, and were each washed twice, for 2 minutes, with an ice-cool Tris-HCl buffer solution containing 20% or 10% ethanol, and immersed in ice water for 10 seconds. After that, the sections were dried with warm air, and placed on imaging plates (Fuji Film). The imaging plates were scanned by a BAS500 system (Fuji Film), and autoradiograms were obtained (FIG. 6A).
In order to compare the binding of [^11C]PBB3 and [^11C]PIB to areas inside the human brain where there were plenty of tau pathologies, in vitro autoradiograms were obtained using AD brain slices including the hippocampal formation.

[3] = test system: NFTs in the AD patient's hippocampus; experiment: In vivo PET imaging of humans; set-up: species or system human; conditions: same AD and normal control subjects
Source text: 2 subjects with normal cognitive function ([…]; average 73.5 years old), and 3 AD patients ([…] years old; average 72 years old) were employed for this study. All the subjects were males, and all the AD patients were diagnosed in accordance with the standards of the National Institute of Neurological and Communicative Diseases and Stroke/Alzheimer's Disease and Related Disorders Association (NINCDS-ADRDA). The clinical dementia rating scale was 0 for both normal subjects, and ranged from 1 to 2 with the AD patients. Their cognitive function was evaluated by a mini-mental state examination (MMSE). […] During the [^11C]PBB-PET scanning, artery blood samples are obtained 10, 20, 30, 40, 50, 60, 70, 80, 90, 100, and 110 seconds after the injection, and 2, 2.5, 3, 4, 5, 6, 7, 8, 9, 10, 12, 15, 20, 25, 30, 40, 50, 60 and 70 minutes after the injection, and the amount of radioactivity in the plasma was measured. The radioactivity to match [^11C]PBB3 in unmetabolized plasma was measured by HPLC using the samples from 3, 10, 20, 30 and 60 minutes after the injection (Waters mBondapak C18 column, 7.8 mm×300 mm; acetonitrile/ammonium formate mobile phase, gradient elution=40/60 (0 minutes), 52/48 (6 minutes), 80/20 (7 minutes), 80/20 (8 minutes), 40/60 (9 minutes) and 40/60 (15 minutes); flow rate, 6 mL/minute). […]

[4] = molecular target: Aβ40 fibrils (Homo sapiens, UniProt P05067); experiment: In vitro fluorometric binding assay, Aβ40 fibrils; conditions: for EC50: average±SE, concentration giving half of maximum fluorescence intensity; for λem (nm) Aβ40: detection wavelength; for λem (nm) Aβ40 / λex (nm) Aβ40: compound bound to Aβ40 polymers; for λex (nm) Aβ40: optimal excitation wavelength
[5] = molecular target: Human T40 (the longest tau isoform formed with 441 amino acid residues) fibrils (Homo sapiens, UniProt P10636); experiment: In vitro fluorometric binding assay, recombinant T40 tau fibrils; conditions: for EC50: average±SE, concentration giving half of maximum fluorescence intensity; for λem (nm) T40: detection wavelength; for λem (nm) T40 / λex (nm) T40: compound bound to T40 polymers; for affinity to tau pathologies: fluorometric analysis using Aβ and tau filaments formed in a test tube; for λex (nm) T40: optimal excitation wavelength; for EC50 (Aβ)/EC50 (Tau): ratio of EC50 of Aβ40 fibrils to EC50 of T40 fibrils
[6] = test system: fibrous aggregate pathologies in AD grey matter; experiment: In vitro autoradiography, AD frontal cortex sections; assay type: binding, human; conditions: up to 1 nM radioligand

Sequence of Human T40 (the longest tau isoform formed with 441 amino acid residues) fibrils (P10636 1-441 isoform P10636-8): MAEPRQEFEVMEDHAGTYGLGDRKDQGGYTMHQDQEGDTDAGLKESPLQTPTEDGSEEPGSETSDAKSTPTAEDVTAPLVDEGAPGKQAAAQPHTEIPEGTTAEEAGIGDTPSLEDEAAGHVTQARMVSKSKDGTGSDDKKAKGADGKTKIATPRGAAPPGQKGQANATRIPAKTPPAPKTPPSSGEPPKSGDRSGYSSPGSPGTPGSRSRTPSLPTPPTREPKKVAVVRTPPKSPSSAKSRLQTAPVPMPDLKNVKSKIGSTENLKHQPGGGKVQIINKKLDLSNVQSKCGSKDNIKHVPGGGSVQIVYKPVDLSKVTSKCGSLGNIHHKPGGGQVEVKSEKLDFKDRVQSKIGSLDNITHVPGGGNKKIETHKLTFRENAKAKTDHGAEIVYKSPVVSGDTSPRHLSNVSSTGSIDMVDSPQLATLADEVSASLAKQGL
Sequence of Aβ40 fibrils (P05067 672-711 limits assumed): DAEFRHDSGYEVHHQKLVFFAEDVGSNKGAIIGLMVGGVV

thioflavin-S
passing the blood brain barrier [1]: difficulty passing the blood brain barrier

[11CH3]Nc1ccc(-c2nc3ccc(O)cc3s2)cc1 [[^11C]PIB, reference compound]
total binding after addition of non-radioactive PBB5 (100 μM) and thioflavin-S (10 μM) [2]: clearly discarded, except for the white matter | signals in hippocampus CAI region and pes hippocampi [2]: no [^11C]PIB signal was observed | PET signal in hippocampal formation of AD patient compared to NC [3]: did not change much

O=C(O)c1cc(/C=C/c2ccc(/C=C/c3ccc(O)c(C(=O)O)c3)c(F)c2)ccc1O [FSB, (E,E)-1-fluoro-2,5-bis(3-hydroxycarbonyl-4-hydroxy)styrylbenzene]
passing the blood brain barrier [1]: difficulty passing the blood brain barrier

CN(C)c1ccc(/C=C/C=C/c2nc3ccccc3s2)cc1 [PBB1, 4-((1E,3E)-4-(benz[d]thiazole-2-yl)buta-1,3-dienyl)-N,N-dimethylaniline]
EC50 [4]: 4110 nM | λem (nm) Aβ40 [4]: 565 nm | λex (nm) Aβ40 [4]: 440 nm | EC50 [5]: 402 ± 352 nM | λem (nm) T40 [5]: 565 nm | affinity to tau pathologies [5]: high affinity | λex (nm) T40 [5]: 515 nm | EC50 (Aβ)/EC50 (Tau) [5]: 10.2

Cc1ccc2c(c1)sc(-c1ccc(N(C)C)cc1)[n+]2C.[Cl-] [Thioflavin-T, reference compound]
λem (nm) Aβ40 [4]: 495 nm | λex (nm) Aβ40 [4]: 445 nm | λem (nm) T40 [5]: 485 nm | λex (nm) T40 [5]: 445 nm

CC[n+]1c(/C=C/C=C/c2ccc(N(C)C)cc2)sc2ccccc21 [PBB5, 2-((1E,3E)-4-(4-(dimethylamino)phenyl)buta-1,3-dienyl)-3-ethylbenzo[d] thiazole-3-ium]
EC50 [4]: 1220 nM | λem (nm) Aβ40 [4]: 685 nm | λex (nm) Aβ40 [4]: 635 nm | EC50 [5]: 126 ± 67 nM | λem (nm) T40 [5]: 685 nm | affinity to tau pathologies [5]: high affinity | λex (nm) T40 [5]: 630 nm | EC50 (Aβ)/EC50 (Tau) [5]: 9.7

[11CH3]Nc1ccc(/C=C/C=C/c2nc3ccc(O)cc3s2)cc1 [[^11C]PBB2, 2-((1E,3E)-4-(4-([^11C]methylamino)phenyl)buta-1,3-dienyl)benz[d]thiazole-6-ol]
radiolabeling of fibrous aggregate pathologies, AD grey matters [6]: strongly radio-labeled

[11CH3]Nc1ccc(/C=C/C=C/c2nc3ccc(O)cc3s2)cn1 [[^11C]PBB3, 2-((1E,3E)-4-(6-([^11C]methylamino)pyridine-3-yl)buta-1,3-dienyl)benz[d]thiazole-6-ol]
radiolabeling of fibrous aggregate pathologies, AD grey matters [6]: strongly radio-labeled | total binding after addition of non-radioactive PBB5 (100 μM) and thioflavin-S (10 μM) [2]: clearly discarded | signals in hippocampus CAI region and pes hippocampi [2]: Strong [^11C]PBB3 signals were observed | binding in cortex region in the side of the collateral sulcus ([2]; compared to [^11C]PIB): more binding | PET signal in hippocampal formation of AD patient compared to NC [3]: increased
